From patent US20250346592A1 (Celgene Corporation, priority 2022, published 2025)
pIC50: −log10 of the molar value.

Molecular target: hPAD4 enzyme (Homo sapiens (Human), UniProt Q9UM07)
Assay: RFMS2 assay (RapidFire mass spectrometry, TSTGGRQGSHH peptide substrate)
Assay type: biochemical
Details: 35 nM recombinant human PAD4, 500 μM TSTGGRQGSHH peptide, 30 minutes at room temperature; read-out: RFMS 2 IC50
Procedure, shortened: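 Recombinant human PAD4 (35 nM) with 500 μM TSTGGRQGSHH peptide in HEPES pH 7.4, 200 mM NaCl, 2 mM CaCl2, 5 mM DTT, 1.2% DMSO, 30 min at room temperature; 3-fold compound series, top 20 μM. Quenched with formic acid; substrate and citrullinated product quantified by RapidFire MRM mass spectrometry for IC50.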

Chain of hPAD4 enzyme (Q9UM07 whole entry): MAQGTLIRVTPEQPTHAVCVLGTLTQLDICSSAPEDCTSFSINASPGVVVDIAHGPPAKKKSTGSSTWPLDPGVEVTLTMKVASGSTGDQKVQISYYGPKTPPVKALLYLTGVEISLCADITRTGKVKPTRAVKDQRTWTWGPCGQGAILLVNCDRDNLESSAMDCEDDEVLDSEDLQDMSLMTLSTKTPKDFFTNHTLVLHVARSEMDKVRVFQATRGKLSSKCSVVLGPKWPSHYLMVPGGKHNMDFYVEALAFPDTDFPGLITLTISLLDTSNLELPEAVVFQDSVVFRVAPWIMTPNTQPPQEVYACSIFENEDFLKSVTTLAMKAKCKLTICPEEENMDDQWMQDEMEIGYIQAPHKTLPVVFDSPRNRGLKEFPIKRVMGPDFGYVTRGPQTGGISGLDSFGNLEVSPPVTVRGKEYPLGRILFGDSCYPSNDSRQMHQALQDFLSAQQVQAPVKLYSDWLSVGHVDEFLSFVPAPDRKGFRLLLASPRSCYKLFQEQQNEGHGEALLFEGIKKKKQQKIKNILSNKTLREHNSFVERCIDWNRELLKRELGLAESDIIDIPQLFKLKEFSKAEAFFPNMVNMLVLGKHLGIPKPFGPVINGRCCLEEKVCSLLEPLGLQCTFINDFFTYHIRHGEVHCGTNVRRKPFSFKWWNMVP

Row | SMILES | pIC50
1 | COc1cccc2cc(-c3nc4cc5c(cc4n3C)CCN(C[C@H](N)CF)C5=O)n(Cc3ccco3)c12 [Example 141, (S)-6-(2-amino-3-fluoropropyl)-2-(1-(furan-2-ylmethyl)-7-methoxy-1H-indol-2-yl)-1-methyl-1,6,7,8-tetrahydro-5H-imidazo[4,5-g]isoquinolin-5-one] | 6.30 to 7.00
2 | Cc1nnc(Cn2c(-c3nc4cc5c(cc4n3C)CCN(C[C@H](N)CF)C5=O)cc3ccccc32)o1 [Example 99, (S)-6-(2-amino-3-fluoropropyl)-1-methyl-2-(1-((5-methyl-1,3,4-oxadiazol-2-yl)methyl)-1H-indol-2-yl)-1,6,7,8-tetrahydro-5H-imidazo[4,5-g]isoquinolin-5-one] | < 6.00
3 | Cn1c(-c2cc3ccccc3n2Cc2ccno2)nc2cc3c(cc21)CCN(C[C@H](N)CF)C3=O [Example 93, (S)-6-(2-amino-3-fluoropropyl)-2-(1-(isoxazol-5-ylmethyl)-1H-indol-2-yl)-1-methyl-1,6,7,8-tetrahydro-5H-imidazo[4,5-g]isoquinolin-5-one] | 6.30 to 7.00
4 | COc1cccc2cc(-c3nc4cc5c(cc4n3C)CCN(C[C@@H](C)N)C5=O)n(CCOC3CC3)c12 [Example 91] | 6.30 to 7.00
5 | COc1ccc2cc(-c3nc4cc5c(cc4n3C)CCN(C[C@H](N)CF)C5=O)n(Cc3ccno3)c2c1 [Example 112, (S)-6-(2-amino-3-fluoropropyl)-2-(1-(isoxazol-5-ylmethyl)-6-methoxy-1H-indol-2-yl)-1-methyl-1,6,7,8-tetrahydro-5H-imidazo[4,5-g]isoquinolin-5-one] | 6.30 to 7.00
6 | Cc1c(-c2nc3cc4c(cc3n2C)CCN(C[C@@H](C)N)C4=O)n(CC2CC2)c2ccccc12 [Example 23, (R)-6-(2-aminopropyl)-2-(1-(cyclopropylmethyl)-3-methyl-1H-indol-2-yl)-1-methyl-1,6,7,8-tetrahydro-5H-imidazo[4,5-g]isoquinolin-5-one] | < 6.00
7 | Cn1c(-c2cc3cccc(OCCc4ccon4)c3n2CC2CC2)nc2cc3c(cc21)CCN(C[C@H](N)CF)C3=O [Example 170, (S)-6-(2-amino-3-fluoropropyl)-2-(1-(cyclopropyl-methyl)-7-(2-(isoxazol-3-yl)ethoxy)-1H-indol-2-yl)-1-methyl-1,6,7,8-tetrahydro-5H-imidazo[4,5-g] isoquinolin-5-one] | 6.30 to 7.00
8 | COCCn1c(-c2nc3cc4c(cc3n2C)CCN(C[C@H](N)CF)C4=O)cc2cccnc21 [Example 106, (S)-6-(2-amino-3-fluoropropyl)-2-(1-(2-methoxyethyl)-1H-pyrrolo[2,3-b]pyridin-2-yl)-1-methyl-1,6,7,8-tetrahydro-5H-imidazo[4,5-g]isoquinolin-5-one] | < 6.00
9 | Cn1cc(Cn2c(-c3nc4cc5c(cc4n3C)CCN(C[C@H](N)CF)C5=O)cc3ccccc32)cn1 [Example 95, (S)-6-(2-amino-3-fluoropropyl)-1-methyl-2-(1-((1-methyl-1H-pyrazol-4-yl)methyl)-1H-indol-2-yl)-1,6,7,8-tetrahydro-5H-imidazo[4,5-g]isoquinolin-5-one] | 6.00 to 6.30
10 | Cn1c(-c2cc3cccc(OCc4ccon4)c3n2CC2CC2)nc2cc3c(cc21)CCN(C[C@H](N)CF)C3=O [Example 167, (S)-6-(2-amino-3-fluoropropyl)-2-(1-(cyclopropylmethyl)-7-(isoxazol-3-ylmethoxy)-1H-indol-2-yl)-1-methyl-1,6,7,8-tetrahydro-5H-imidazo[4,5-g]isoquinolin-5-one] | 6.30 to 7.00
11 | Cn1c(-c2cc3cccnc3n2CC2CC2)nc2cc3c(cc21)CCN(C[C@H](N)CF)C3=O [Example 49, (S)-6-(2-amino-3-fluoropropyl)-2-(1-(cyclopropylmethyl)-1H-pyrrolo[2,3-b]pyridin-2-yl)-1-methyl-1,6,7,8-tetrahydro-5H-imidazo[4,5-g]isoquinolin-5-one] | < 6.00
12 | COc1ccc2cc(-c3nc4cc5c(cc4n3C)CCN(C[C@@H](C)N)C5=O)n(CC3CC3)c2n1 [Example 44, (R)-6-(2-aminopropyl)-2-(1-(cyclopropylmethyl)-6-methoxy-1H-pyrrolo[2,3-b]pyridin-2-yl)-1-methyl-1,6,7,8-tetrahydro-5H-imidazo[4,5-g]isoquinolin-5-one] | 6.30 to 7.00
13 | CNC(=O)OCCOc1cccc2cc(-c3nc4cc5c(cc4n3C)CCN(C[C@H](N)CF)C5=O)n(CC3CC3)c12 [Example 211, (S)-2-((2-(6-(2-amino-3-fluoropropyl)-1-methyl-5-oxo-5,6,7,8-tetrahydro-1H-imidazo[4,5-g]isoquinolin-2-yl)-1-(cyclopropylmethyl)-1H-indol-7-yl)oxy)ethyl methylcarbamate] | 6.30 to 7.00
14 | Cn1c(-c2cc3cccc(OCc4cocn4)c3n2CC2CC2)nc2cc3c(cc21)CCN(C[C@H](N)CF)C3=O [Example 189, (S)-6-(2-amino-3-fluoropropyl)-2-(1-(cyclopropylmethyl)-7-(oxazol-4-ylmethoxy)-1H-indol-2-yl)-1-methyl-1,6,7,8-tetrahydro-5H-imidazo[4,5-g]isoquinolin-5-one] | 6.30 to 7.00
15 | COc1cccc2cc(-c3nc4cc5c(cc4n3C)CCN(C[C@H](N)CF)C5=O)n(Cc3cc(C#N)no3)c12 [Example 137, (S)-5-((2-(6-(2-amino-3-fluoropropyl)-1-methyl-5-oxo-5,6,7,8-tetrahydro-1H-imidazo[4,5-g]isoquinolin-2-yl)-7-methoxy-1H-indol-1-yl)methyl)isoxazole-3-carbonitrile] | 6.30 to 7.00
16 | Cn1c(-c2cc3cccc(OCC4CNC(=O)C4)c3n2CC2CC2)nc2cc3c(cc21)CCN(C[C@H](N)CF)C3=O (stereo partly shown) [Example 151] | 7.00 to 7.96
17 | C[C@@H](N)CN1CCc2cc3c(cc2C1=O)nc(-c1cc2ccccc2n1Cc1ccccc1)n3C [Example 78, (R)-6-(2-aminopropyl)-2-(1-benzyl-1H-indol-2-yl)-1-methyl-1,6,7,8-tetrahydro-5H-imidazo[4,5-g]isoquinolin-5-one] | 6.30 to 7.00
18 | Cn1c(-c2cc3cccc(OCCc4cnco4)c3n2CC2CC2)nc2cc3c(cc21)CCN(C[C@H](N)CF)C3=O [Example 194, (S)-6-(2-amino-3-fluoropropyl)-2-(1-(cyclopropylmethyl)-7-(2-(oxazol-5-yl)ethoxy)-1H-indol-2-yl)-1-methyl-1,6,7,8-tetrahydro-5H-imidazo[4,5-g]isoquinolin-5-one] | 7.00 to 7.96
19 | Cn1c(-c2cc3cccc(OCCn4ncnc4C#N)c3n2CC2CC2)nc2cc3c(cc21)CCN(C[C@H](N)CF)C3=O [Example 225, (S)-1-(2-((2-(6-(2-amino-3-fluoropropyl)-1-methyl-5-oxo-5,6,7,8-tetrahydro-1H-imidazo[4,5-g]isoquinolin-2-yl)-1-(cyclopropylmethyl)-1H-indol-7-yl)oxy)ethyl)-1H-1,2,4-triazole-5-carbonitrile] | < 6.00
20 | Cn1c(-c2cc3cccc(N4CCOCC4)c3n2CC2CC2)nc2cc3c(cc21)CCN(C[C@H](N)CF)C3=O [Example 70] | < 6.00
21 | Cn1c(-c2cc3cccc(OCc4ccno4)c3n2CC2CC2)nc2cc3c(cc21)CCN(C[C@H](N)CF)C3=O [Example 175, (S)-6-(2-amino-3-fluoropropyl)-2-(1-(cyclopropyl-methyl)-7-(isoxazol-5-ylmethoxy)-1H-indol-2-yl)-1-methyl-1,6,7,8-tetrahydro-5H-imidazo[4,5-g] isoquinolin-5-one] | 6.30 to 7.00
22 | Cn1c(-c2cc3cccc(OCCn4cnc(C#N)n4)c3n2CC2CC2)nc2cc3c(cc21)CCN(C[C@H](N)CF)C3=O [Example 224, (S)-1-(2-((2-(6-(2-amino-3-fluoropropyl)-1-methyl-5-oxo-5,6,7,8-tetrahydro-1H-imidazo[4,5-g]isoquinolin-2-yl)-1-(cyclopropylmethyl)-1H-indol-7-yl)oxy)ethyl)-1H-1,2,4-triazole-3-carbonitrile] | 6.30 to 7.00
23 | CC(Oc1cccc2cc(-c3nc4cc5c(cc4n3C)CCN(C[C@H](N)CF)C5=O)n(CC3CC3)c12)c1ccno1 (stereo partly drawn) [Example 197, 6-((S)-2-amino-3-fluoropropyl)-2-(1-(cyclopropylmethyl)-7-(1-(isoxazol-5-yl)ethoxy)-1H-indol-2-yl)-1-methyl-1,6,7,8-tetrahydro-5H-imidazo[4,5-g]isoquinolin-5-one] | 6.30 to 7.00
24 | Cc1ccc2cc(-c3nc4cc5c(cc4n3C)CCN(C[C@H](N)CF)C5=O)n(CC3CC3)c2c1 [Example 47, (S)-6-(2-amino-3-fluoropropyl)-2-(1-(cyclopropylmethyl)-6-methyl-1H-indol-2-yl)-1-methyl-1,6,7,8-tetrahydro-5H-imidazo[4,5-g]isoquinolin-5-one] | 6.30 to 7.00
25 | C[C@@H](N)CN1CCc2cc3c(cc2C1=O)nc(-c1cc2ccc(C#N)cc2n1CC1CC1)n3C [Example 32] | 6.30 to 7.00
26 | COc1cccc2cc(-c3nc4cc5c(cc4n3C)CCN(C[C@H](N)CF)C5=O)n(Cc3cnco3)c12 [Example 117, (S)-6-(2-amino-3-fluoropropyl)-2-(7-methoxy-1-(oxazol-5-ylmethyl)-1H-indol-2-yl)-1-methyl-1,6,7,8-tetrahydro-5H-imidazo[4,5-g]isoquinolin-5-one] | 6.30 to 7.00
27 | Cn1c(-c2cc3cccc(OCCn4cccc4)c3n2CC2CC2)nc2cc3c(cc21)CCN(C[C@H](N)CF)C3=O [Example 180, (S)-2-(7-(2-(1H-pyrrol-1-yl)ethoxy)-1-(cyclopropyl-methyl)-1H-indol-2-yl)-6-(2-amino-3-fluoropropyl)-1-methyl-1,6,7,8-tetrahydro-5H-imidazo[4,5-g] isoquinolin-5-one] | 6.30 to 7.00
28 | COc1cccc2cc(-c3nc4cc5c(cc4n3C)CCN(C[C@H](N)CF)C5=O)n(Cc3ocnc3C)c12 [Example 142, (S)-6-(2-amino-3-fluoropropyl)-2-(7-methoxy-1-((4-methyloxazol-5-yl)methyl)-1H-indol-2-yl)-1-methyl-1,6,7,8-tetrahydro-5H-imidazo[4,5-g]isoquinolin-5-one] | 6.30 to 7.00
